We go through one compound from publication PMC7613620, “Reaction hijacking of tyrosine tRNA synthetase as a whole-of-life-cycle antimalarial strategy” (Science (New York, N.Y.), 2022).

What is called IC50 is the concentration at which inhibition is half-maximal.

In test [1] the test system is P. falciparum (3D7). The test is described as follows: P. falciparum (3D7) culture growth inhibition, 72 h. It is filed as cell-based, Plasmodium falciparum. Particulars: for IC50: Plasmodium falciparum. The protocol: (1 picture or pasted object on this page, not shown here)
553 Sigma-Aldrich) for 48-72 h. For drug pulse assays, tightly synchronized parasites (1-1.5% parasitemia,
554 0.2% final hematocrit) were added to the plates and incubated for 3 h. Drugs were removed and the
555 parasitemia assessed in the trophozoite stage of the next cycle.
557 Compounds were tested against a range of drug resistant field isolates and laboratory strains using a
558 modified [3H]-hypoxanthine incorporation assay, as previously reported (46). Field isolates 7G8, Cam3.1,
559 Dd2, K1, TM90C2B and NF54 were obtained from MR4 (www.beiresources.org).
561 Mammalian cell culture experiments
562 The HepG2 (Human hepatocyte carcinoma) cell line was procured from ATCC (American Type
563 Culture Collection, Manassas, USA; HB-8065) and viability assessed using Cell Titer-GLO luminescent
564 cell viability assay reagents (Promega, catalogue number: G7570) (47, 48). For the assay, 2000 cells/well
565 were plated in 384-well plates 24 h prior to the experiment and incubated at 37°C in a CO2 incubator. The
566 medium was removed and cells were treated with fresh medium containing either vehicle (0.5% DMSO)
567 or serially diluted test compounds or doxorubicin (1.3 nM to 25 µM) in a final volume of 50 µl/well and
568 further incubated for 72 h at 37°C in a CO2 incubator.
569 were treated with 5 µl of 1% Triton X-100 (final assay conc. 0.1%). Following incubation, 25 µl of medium
570 was discarded and 25 µl of Cell Titer-GLO reagent was added to each well and the plate was kept on a plate
571 shaker for 15 min at 25°C with shaking at 300 rpm. Luminescence signals were measured in a Spectramax
572 M5 reader (Molecular Devices).
574 H1650 is a human lung cancer derived ATG7-null cell line (49) that can be used to assess effects on targets
576 adenocarcinoma; bronchoalveolar carcinoma). Other cells lines used are: H460 (NCI-H460; human lung;
577 carcinoma; large cell lung cancer; ATCC: HTB-177); and HCT116 (human colon; colorectal carcinoma;
578 ATCC: CCL-247; Lot : 5056139). Each of the cell lines was received from the American Type Culture
579 Collection (ATCC) and passaged twice before freezing. Cells were cultured in the presence or absence of
580 inhibitors and cell viability was assessed by comparing the ATP content in compound-treated wells with
581 that in DMSO-treated wells as previously described (11).
583 HeLa cells (human cervical adenocarcinoma; genome sequenced (Garvin Institute, Australia) and verified

The target of test [2] is NEDD8-activating enzyme (NAE) (Homo sapiens, UniProt Q8TBC4). Kind of test: E1-E2 transthiolation HTRF assay, NAE. Format: biochemical. An excerpt:
592 E1-E2 Transthiolation Assays
593 An Homogeneous Time-Resolved Fluorescence (HTRF) enzyme assay was employed to evaluate
594 compound activity against ATG7 as previously described (11). In this assay, a Flag-tagged ATG8 homolog
595 (GABA type A receptor-associated protein; GABARAP) is activated by ATG7 and then transthiolated to a
596 GST-tagged E2 (ATG3). The product of the enzyme reaction, Flag-GABARAP-ATG3-GST, is quantified
597 by measuring FRET between Europium-Cryptate labelled monoclonal anti-Flag M2 (CisBio International,
598 Cat# 61FG2KLB) and PHYCOLINK goat anti-GST allophycocyanin (Prozyme, PJ252p1). The activation
599 and transthiolation of ubiquitin by Ubiquitin Activating Enzyme, activation and transthiolation of NEDD8
600 by NEDD8 Activating Enzyme. […]
606 Compounds were incubated with mature stage V gametocytes ([…], kind gift from Professor Chris Janse
607 at Leiden University Medical Center (LUMC), the Netherlands) for 48 hours in 384 well plates before
608 gamete formation was triggered by a drop in temperature and addition of xanthurenic acid. […]
611 Multiple data sets using different gametocyte cultures were collected on each of two separate days.
613 Activity against exoerythrocytic stages
614 Primary human hepatocytes (H1500.H15B+ Lot No. HC10-10 Cryopreserved human hepatocytes) […]
Background: Time-resolved FRET reads energy transfer from a long-lived donor to a nearby acceptor.

Test [3] concerns the target T1, PfYRS (Plasmodium falciparum, UniProt Q8IAR7). Kind of test: Tyrosine acylation of cognate tRNATyr by PfYRS. Format: biochemical.
Test [4] concerns the target T1, PfYRS. Kind of test: biochemical. Particulars: PfYRS incubated with ML901 in the presence of Tyr, ATP and tRNATyr. It is filed as binding. As for the experimental part: 804 An intron was detected in the PftRNATyr sequence, that was not indicated in PlasmoDB. A T7 RNA
805 polymerase promoter sequence was added to the 5’ end of the DNA sequence of P. falciparum and H.
806 sapiens tRNATyr. This DNA template and its complementary strand were custom-synthesized by Sigma-
807 Aldrich. Two oligonucleotides were annealed at 95°C for 5 min and the double-stranded DNA template
808 was used for in vitro transcription. The transcription reaction was incubated at 37°C overnight. The reaction
809 mixture consists of template DNA, T7 RNA polymerase and NTP mix as per manufacturer's instructions
810 (HiScribe™ T7 Quick High Yield RNA Synthesis Kit, NEB). On the following day, the reaction mixture
811 was treated with DNase I at 37°C for 15 min. tRNA was purified using RNA clean-up spin columns
812 (Monarch® RNA Cleanup Kit, NEB) to remove contaminants from the transcription reaction.
814 Differential scanning fluorimetry (DSF)
815 PfYRS and HsYRS at 0.1 mg/ml were incubated with various substrates at 37°C for 1-3 h. PfYRS was
816 assayed in 25 mM Tris, pH 8, 150 mM NaCl, 5 mM MgCl2 and 1 mM TCEP. HsYRS was assayed in 50
817 mM Tris, pH 7.5, 150 mM NaCl, 50 mM KCl, 5 mM MgCl2 and 1 mM TCEP. SYPRO Orange (Sigma-
818 Aldrich; 5,000X concentrate in DMSO) was added to the reaction mixture at a final concentration of 2.5X.
819 25 µL of the sample was added into each well of a 96-well qPCR plate (Applied Biosystems). The plate
820 was sealed and analysed using StepOnePlus Real-Time PCR system (Applied Biosystems). The samples
821 were heated from 20°C to 90°C with a 1% continuous gradient. The thermal unfolding curve was plotted
822 as the first derivative curve of the raw fluorescence values. The melting temperature (Tm), defined as the
823 peak of the first derivative curve, was used to assess the thermal stability of protein-ligand complexes. KD
824 values were calculated from DTm using the equation: ln(KD/[L]) = -131.5 x (∆Tm/Tm,apo) - 1.9, where [L]
825 is the concentration of ligand and T is the temperature in Kelvin (40). […]

Like-named read-outs stand apart in the source and are kept apart here.

T1 sequence (Q8IAR7 entry or part of it): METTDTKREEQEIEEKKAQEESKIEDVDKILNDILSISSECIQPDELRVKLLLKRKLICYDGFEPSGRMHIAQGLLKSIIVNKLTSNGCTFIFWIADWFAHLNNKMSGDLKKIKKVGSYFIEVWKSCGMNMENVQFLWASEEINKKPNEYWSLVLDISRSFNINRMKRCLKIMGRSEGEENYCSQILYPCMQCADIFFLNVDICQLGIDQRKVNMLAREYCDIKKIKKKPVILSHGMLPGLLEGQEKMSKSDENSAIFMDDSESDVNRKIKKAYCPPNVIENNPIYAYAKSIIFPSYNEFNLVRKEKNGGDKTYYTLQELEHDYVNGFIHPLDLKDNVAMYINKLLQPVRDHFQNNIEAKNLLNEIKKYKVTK
Chain of NEDD8-activating enzyme (NAE) (Q8TBC4 whole entry): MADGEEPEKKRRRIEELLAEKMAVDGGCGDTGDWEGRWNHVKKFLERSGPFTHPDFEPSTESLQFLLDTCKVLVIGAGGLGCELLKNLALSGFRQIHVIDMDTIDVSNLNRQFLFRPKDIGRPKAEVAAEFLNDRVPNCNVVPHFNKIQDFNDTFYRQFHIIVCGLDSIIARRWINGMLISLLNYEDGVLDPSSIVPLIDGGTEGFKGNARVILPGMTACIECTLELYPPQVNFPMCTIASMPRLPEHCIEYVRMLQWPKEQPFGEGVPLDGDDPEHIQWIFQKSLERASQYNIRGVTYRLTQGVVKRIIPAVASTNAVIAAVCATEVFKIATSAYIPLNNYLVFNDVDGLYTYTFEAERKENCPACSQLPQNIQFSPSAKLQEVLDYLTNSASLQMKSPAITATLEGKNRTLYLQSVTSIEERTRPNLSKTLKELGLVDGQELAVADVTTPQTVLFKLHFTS
Chain of NEDD8-activating enzyme (NAE) (Q13564 whole entry partner): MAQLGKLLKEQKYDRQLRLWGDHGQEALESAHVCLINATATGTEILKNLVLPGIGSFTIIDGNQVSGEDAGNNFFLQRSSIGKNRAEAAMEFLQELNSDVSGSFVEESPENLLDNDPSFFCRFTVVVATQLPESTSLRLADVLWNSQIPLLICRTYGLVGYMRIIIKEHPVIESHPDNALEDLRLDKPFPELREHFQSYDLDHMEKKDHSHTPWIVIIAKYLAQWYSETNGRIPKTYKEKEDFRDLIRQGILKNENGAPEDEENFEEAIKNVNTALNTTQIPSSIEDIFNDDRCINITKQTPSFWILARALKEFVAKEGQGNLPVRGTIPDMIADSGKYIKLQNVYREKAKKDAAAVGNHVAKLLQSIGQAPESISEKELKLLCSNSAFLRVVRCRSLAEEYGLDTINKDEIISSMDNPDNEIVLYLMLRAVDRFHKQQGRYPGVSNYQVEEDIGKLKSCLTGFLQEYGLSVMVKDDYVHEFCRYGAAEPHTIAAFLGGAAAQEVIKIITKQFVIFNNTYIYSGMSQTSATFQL

For the compound `Nc1ncnc2c1c(OC(F)F)nn2[C@@H]1O[C@H](COS(N)(=O)=O)[C@@H](O)[C@H]1O` [ML901], in test [1] (P. falciparum versus mammalian cell lines, compared with AMS), the “higher selectivity than AMS” value is > 1,000 fold. The IC50 in test [1] (read-out: Pf3D7 IC50(72h), P. falciparum 3D7, 72 h) was 2 ± 0.1 nM; in test [1] (3D7 parent of the in vitro evolution experiment, 72 h, read-out: IC50 (3D7)), 1.9 ± 0.1 nM; in test [2], more than 1000 nM; in test [3], 53000 nM. In addition, the “selectivity towards P. falciparum” value in test [1] (versus different mammalian cell lines) is 800- to 5,000 fold. Further, in test [4], the “increase of apparent protein melting point (Tm)” value is 15 °C.
